Eleven compounds from ChEMBL document CHEMBL1201862, “PubChem BioAssay data set” (2004) can be followed below.

Among the test systems are 786-0; A549; HCT-15; HL-60; HOP-62; HT-29; K562; LXFL 529; Malme-3M; NCI-H226; NCI-H23; OVCAR-3; OVCAR-5; SF-295; SF-539; SK-MEL-2; SNB-19; UO-31; SNB-75; BT-549.
Holding throughout (test): NCI tumour cell line growth inhibition, 48 h

Several values for one entry are separate records, joined by “and”; a condition that tells them apart may be missing. Identical values can stand only once.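 Exposure lasted 48 hours, with cells grown in 96-well plates and compounds tested at five concentrations. GI50: concentration for 50% inhibition of growth.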 Activity calls are given as the source filed them. Rule as the data show it: active = GI50 up to about 1.1 µM and inactive = higher.

In the case of `COC(=O)[C@]1(C)CCC[C@]2(C)C3CC4OOC3(C=C4C(C)C)CCC21` (stereo not given in full), the GI50 in the experiment with 786-0 is 5.51 µM (inactive); in the experiment on A549, 16.8 µM (inactive); in the experiment on HCT-15 it was 16.5 µM; in the experiment with HL-60 it was 2.07 µM (inactive); in the experiment with HOP-62, 24.5 µM (inactive); in the experiment on HT-29, 14.7 µM (inactive). Besides, the GI50 was 12 µM (inactive) in the experiment on K562; 13.7 µM (inactive) in the experiment with LXFL 529; 20.8 µM (inactive) in the experiment with Malme-3M; 19.6 µM (inactive) in the experiment on NCI-H226; 18.8 µM (inactive) in the experiment on NCI-H23; 31.8 µM (inactive) with OVCAR-3. Also, the GI50 in the experiment with OVCAR-5 is 19.6 µM (inactive); with SF-295, 16.3 µM (inactive); with SF-539, 17 µM (inactive); with SK-MEL-2, 17.2 µM (inactive); in the experiment with SNB-19 it was 17.4 µM (inactive); in the experiment on UO-31, 15.2 µM (inactive).

For the compound `C/C(=N\OCC(O)CNC(C)C)c1ccc2c(c1)NC(=O)CS2` (stereo not given), the GI50 in the experiment on 786-0 is > 100 µM (inactive); in the experiment on A549, > 100 µM (inactive); in the experiment on HCT-15 it was greater than 100 µM; in the experiment on HOP-62, > 100 µM (inactive); with HT-29, > 100 µM (inactive); in the experiment with K562, > 100 µM (inactive). For the same compound, the GI50 in the experiment on LXFL 529, in the experiment on Malme-3M, in the experiment with NCI-H226, with NCI-H23, in the experiment with OVCAR-3 and in the experiment with OVCAR-5 was > 100 µM (inactive) each time. Also, the GI50 was > 100 µM (inactive) in the experiment with SF-295; > 100 µM (inactive) in the experiment with SF-539; > 100 µM (inactive) in the experiment with SK-MEL-2; > 100 µM (inactive) with SNB-19; 50.6 µM (inactive) in the experiment on SNB-75; 91.2 µM (inactive) in the experiment with UO-31.

As for `O=C1c2ccccc2-c2c3c(cc4ccnc1c24)OCO3` [LIRIODENINE], the GI50 was 4.25 µM (inactive) and 7.69 µM (inactive) with 786-0; 3.48 µM (inactive) and 3.47 µM (inactive) with A549; 4.9 µM and 4.42 µM in the experiment on HCT-15; 3 µM (inactive) in the experiment with HL-60; 3.89 µM (inactive) in the experiment with HOP-62; 4.95 µM (inactive) and 4.06 µM (inactive) in the experiment on HT-29. The GI50 in the experiment on K562 is 3.42 µM (inactive) and 4.29 µM (inactive); with LXFL 529, 5.89 µM (inactive) and 6.52 µM (inactive); with Malme-3M, 3.59 µM (inactive) and 3.03 µM (inactive); in the experiment on NCI-H226 it was 4.69 µM (inactive) and 5.27 µM (inactive); in the experiment with NCI-H23 it was 4.05 µM (inactive) and 5.4 µM (inactive); in the experiment on OVCAR-3, 9.25 µM (inactive) and 10.5 µM (inactive). Also, the GI50 in the experiment on OVCAR-5 is 16.9 µM (inactive) and 11.5 µM (inactive); in the experiment on SF-295, 6.12 µM (inactive) and 4.86 µM (inactive); with SK-MEL-2, 4.19 µM (inactive) and 6 µM (inactive); in the experiment on SNB-19 it was 5.68 µM (inactive) and 8 µM (inactive); with SNB-75, 4.18 µM (inactive) and 6 µM (inactive); with UO-31 it was 4.94 µM (inactive) and 3.42 µM (inactive).

As for `Cc1cc(C)nc(NS(=O)(=O)c2ccc(NC(=O)c3cccc4c(Nc5ccc(S(=O)(=O)Nc6nc(C)cc(C)n6)cc5)c5ccc(Cl)cc5nc34)cc2)n1`, the GI50 is 28.4 µM (inactive) in the experiment with 786-0; 41.1 µM (inactive) in the experiment with A549; 75.5 µM with HCT-15; 24.4 µM (inactive) in the experiment on HOP-62; 40.6 µM (inactive) in the experiment on HT-29; 26.1 µM (inactive) with K562. In addition, the GI50 in the experiment with LXFL 529 is 33 µM (inactive); with Malme-3M, 16.4 µM (inactive); in the experiment with NCI-H23, 39.4 µM (inactive); with OVCAR-3 it was 17.5 µM (inactive); with OVCAR-5 it was > 100 µM (inactive); with SF-295 it was 38 µM (inactive). For the same compound, the GI50 with SF-539 is 37.8 µM (inactive); with SK-MEL-2, 34 µM (inactive); with SNB-19 it was 28.1 µM (inactive); in the experiment with SNB-75, 17.1 µM (inactive); in the experiment on UO-31, 13.4 µM (inactive).

As to `CCOC(=O)C1N(S(=O)(=O)c2ccc(C)cc2)CCC12C(c1ccc(OC)cc1)NC1CCCCC12` (stereo not given), the GI50 is 68.7 µM (inactive) with 786-0; > 100 µM (inactive) in the experiment on A549; greater than 100 µM in the experiment on HCT-15; > 100 µM (inactive) in the experiment on HL-60; 98.6 µM (inactive) with HOP-62; > 100 µM (inactive) in the experiment on HT-29. Further, the GI50 is > 100 µM (inactive) in the experiment on K562; > 100 µM (inactive) in the experiment with LXFL 529; 67.3 µM (inactive) with Malme-3M; > 100 µM (inactive) with NCI-H226; > 100 µM (inactive) in the experiment on NCI-H23; > 100 µM (inactive) in the experiment on OVCAR-3. Further, the GI50 in the experiment with OVCAR-5 is > 100 µM (inactive); in the experiment with SF-295, 77.6 µM (inactive); with SF-539, 55.7 µM (inactive); in the experiment with SNB-19, > 100 µM (inactive); with SNB-75, 28.9 µM (inactive); with UO-31 it was > 100 µM (inactive).

Regarding `CCOC(=O)/C(=C/c1ccc(C(F)(F)F)cc1)N(CC)CC`, the GI50 in the experiment with 786-0 was > 100 µM (inactive); in the experiment on A549, 38.8 µM (inactive); with HCT-15, 40.6 µM; with HL-60 it was > 100 µM (inactive); with HOP-62 it was 42.6 µM (inactive); in the experiment on HT-29, > 100 µM (inactive). The GI50 with K562 was > 100 µM (inactive); with LXFL 529 it was 51.6 µM (inactive); in the experiment with Malme-3M, 57.5 µM (inactive); in the experiment on NCI-H226 it was 48.4 µM (inactive); in the experiment with NCI-H23 it was 37.3 µM (inactive); in the experiment with OVCAR-5 it was 87.1 µM (inactive). The GI50 in the experiment on SF-295 was 84.7 µM (inactive); with SF-539, > 100 µM (inactive); with SK-MEL-2, 25.7 µM (inactive); in the experiment with SNB-75, > 100 µM (inactive); in the experiment on UO-31, 46.1 µM (inactive).

With `CC/C(=N\NC(=O)c1cccnc1)c1ccc2c(c1)OCCO2`, the GI50 in the experiment with 786-0 is > 100 µM (inactive); in the experiment on A549, > 100 µM (inactive); with BT-549, > 100 µM (inactive); in the experiment on HCT-15, greater than 100 µM; in the experiment on HL-60, > 100 µM (inactive); with HOP-62 it was > 100 µM (inactive). Also, the GI50 is > 100 µM (inactive) in the experiment with HT-29; 76 µM (inactive) in the experiment on K562; 28.4 µM (inactive) with Malme-3M; > 100 µM (inactive) in the experiment on NCI-H226; > 100 µM (inactive) with NCI-H23; > 100 µM (inactive) in the experiment with OVCAR-3. Moreover, the GI50 in the experiment with OVCAR-5, with SF-295, with SF-539, in the experiment with SK-MEL-2, in the experiment with SNB-19 and in the experiment on SNB-75 was > 100 µM (inactive) throughout. Further, the GI50 in the experiment with UO-31 is > 100 µM (inactive).

Turning to `COC(=O)C1CC/C(=N\c2cccc(C(F)(F)F)c2)N1` (stereo not given), the GI50 with 786-0 is > 100 µM (inactive); in the experiment on A549 it was > 100 µM (inactive); with HCT-15 it was greater than 100 µM; in the experiment on HL-60 it was > 100 µM (inactive); in the experiment with HOP-62, > 100 µM (inactive); with HT-29 it was > 100 µM (inactive). The GI50 with K562, in the experiment on LXFL 529, in the experiment with Malme-3M, in the experiment with NCI-H226, in the experiment with NCI-H23 and in the experiment with OVCAR-3 was > 100 µM (inactive) in each case. Moreover, the GI50 in the experiment with OVCAR-5, in the experiment with SF-295, with SK-MEL-2, in the experiment with SNB-19, in the experiment on SNB-75 and in the experiment on UO-31 was > 100 µM (inactive) throughout.

`c1ccc(C2Nc3ccccc3C3OCCCC23)cc1` (stereo not given): the GI50 in the experiment with 786-0 is 27.6 µM (inactive); in the experiment on A549 it was 20.5 µM (inactive); in the experiment on HCT-15, 27 µM; with HL-60, 24.7 µM (inactive); with HT-29 it was > 10 µM (inactive); with K562, 14.6 µM (inactive). The GI50 in the experiment on LXFL 529 was 7.78 µM (inactive); with Malme-3M, 30.7 µM (inactive); in the experiment with NCI-H226, 14.8 µM (inactive); with NCI-H23 it was 32.8 µM (inactive); with OVCAR-5, 38.7 µM (inactive); with SF-295, 16.6 µM (inactive). In addition, the GI50 was 16.1 µM (inactive) with SF-539, 30.7 µM (inactive) with SK-MEL-2, 31.3 µM (inactive) in the experiment on SNB-19 and 27 µM (inactive) with UO-31.

In the case of `OC1c2ccccc2C2(O)C1C(c1ccccc1)C(c1ccccc1)C2(O)c1ccccc1` (stereo not given), the GI50 with 786-0 was 11.5 µM (inactive); with A549, 11.4 µM (inactive); in the experiment on HCT-15, 3.06 µM; in the experiment with HL-60 it was 8.87 µM (inactive); in the experiment on HOP-62 it was 13.2 µM (inactive); in the experiment with HT-29, 9.86 µM (inactive). The GI50 in the experiment on K562 was 5.71 µM (inactive); in the experiment with LXFL 529, 9.82 µM (inactive); with Malme-3M, 12.7 µM (inactive); with NCI-H23 it was 13.3 µM (inactive); with OVCAR-3 it was 4.88 µM (inactive); in the experiment with OVCAR-5 it was 10.7 µM (inactive). Besides, the GI50 with SF-295 is 6.52 µM (inactive); in the experiment with SF-539 it was 12.6 µM (inactive); with SK-MEL-2, 10.3 µM (inactive); with SNB-19, 23.5 µM (inactive); with SNB-75, 12.1 µM (inactive); in the experiment on UO-31 it was 13.4 µM (inactive).

For the compound `CC12c3ccccc3C(OC=O)(c3ccccc31)C1(C)c3ccccc3C2(OC=O)c2ccccc21`, the GI50 in the experiment with 786-0 was > 100 µM (inactive); in the experiment with A549 it was > 100 µM (inactive); in the experiment with HCT-15, greater than 100 µM; with HL-60 it was > 100 µM (inactive); in the experiment with HOP-62, 48.5 µM (inactive); with HT-29 it was > 100 µM (inactive). In addition, the GI50 in the experiment on K562, with LXFL 529, with Malme-3M, in the experiment with NCI-H226, with NCI-H23 and in the experiment with OVCAR-3 was > 100 µM (inactive) in each case. In addition, the GI50 in the experiment with OVCAR-5 is > 100 µM (inactive); in the experiment with SF-295, > 100 µM (inactive); in the experiment on SK-MEL-2, > 100 µM (inactive); in the experiment on SNB-19 it was > 100 µM (inactive); in the experiment with SNB-75, 81.1 µM (inactive); in the experiment on UO-31 it was > 100 µM (inactive).
